Data published in US10188633B2, “Identification of small molecules that facilitate therapeutic exon skipping” (The Regents of the University of California, priority 2011, dated 2019).
Like-named read-outs stand apart in the source and are kept apart here.

System: human DMD exon 50 GFP based reporter
Assay: BioMol high throughput screen in Ex50-GFP reporter C2C12 myoblasts, with or without AON6
Assay type: cell-based, mouse
Settings: for Average Fluorescence (n = 3): average of 3 replicate plates
Text: Small molecule libraries were screened for exon skipping promoting activity in C2C12 myoblasts expressing a human DMD exon 50 GFP based reporter. […] In the reporter cells, successful skipping of DMD exon 50 creates in-frame GFP expression. Number of cells that were fluorescing was quantified using a high content cell imager in 384 well plate format. Fluorescence was normalized by subtracting the average fluorescence value of the carrier (DMSO) controls. Fluorescence readouts are plotted for the BioMol library screen both with (+AO) and without (−AO) from Source Plate 1 (containing the Orphan Ligand, Ion Channel, Enzyme Inhibitor, and Endocannabanoid libraries, n=300). Each point for the DMSO controls, all compounds, and the Top 5% from Source Plate 1 (n=15) represents the average normalized fluorescence of 6 replicates in the −AO screen and 3 replicates in the +AO screen. […] Individual points for dantrolene are plotted with the bold horizontal line indicating the median. The short horizontal lines interspersed among the data points indicate 1, 2, and 3 standard deviations away from the DMSO treatment mean fluorescence.
In contrast to prior screens aimed at identifying small molecules which impact exon skipping, our screen is unique at least because it relies on robust quantitation of a skipping reporter in the context of a muscle lineage cell in the presence and absence of suboptimal AO. These screens were performed using a mouse muscle cell line (C2C12) expressing a human DMD exon 50 GFP based reporter selected to minimize experimental variation and sensitivity in the context of an automated and quantitative fluorescent scanning system.
AO was added prior to small molecule incubation in an effort to identify molecules that facilitate AO skipping rather than AO delivery. The fluorescence induced by each compound was normalized to a vehicle controls per plate to correct for plate to plate variability. Fluorescence was averaged across replicate plates (n=6 without AO screen, n=3 with AO screen). Compounds were rank ordered based on average intensity of fluorescence and difference between the without AO and with AO screen (FIG. 1 and Table 2).
A stable clone was generated from C2C12 cells transfected with a human exon 50 DMD GFP reporter (ex50GFP) that has been previously described. Ex50GFP reporter myoblasts were seeded into uncoated 384 well plates and were incubated for 4 hours either with or without 300 nM of 2′-O-methyl phosphorothioate AON6 [5′[…] 3′ (SEQ ID NO:1)] targeting the human exon 50 splice donor site. Cells were transfected with AON6 using the FUGENE (Roche) transfection reagent per manufacturer's instructions. Following AON6 incubation, each component of the BioMol library (n=503) was screened at 10 uM concentration with a final concentration of the DMSO carrier being 1%. Forty-eight hours later fluorescence was measured using the MicroXpress high content imager and analyzed using MetaXpress. Immediately preceding imaging, DNA was stained with Hoescht for 30 min. The BioMol screen without AO (−AO) was performed in 6 replicates, and the with AO (+AO) screen was performed in 3 replicates. For the screen analysis raw fluorescence values were normalized to carrier controls present on each plate by subtracting the values. Negative fluorescence values were set to 0. The data from each compound were averaged from all replicates. For secondary screening by 12 or 16 point dose response, Ex50GFP myoblasts or C2C12 cells without the reporter were seeded on uncoated 384 well plates. A sub-optimal dose of AON6 targeting DMD exon 50 was added for 4 hours.

[1] = With AON6 screen, compound 10 uM, 48 h, fluorescence normalized by subtracting DMSO carrier controls
[2] = With AON6 screen, compound 10 uM, 48 h, normalized to DMSO carrier controls
[3] = With AON6 screen, compound 10 uM
[4] = Without AON6 screen, compound 10 uM, 48 h, normalized to DMSO carrier controls
[5] = Without AON6 screen, compound 10 uM, average of 6 replicate plates

| SMILES | Fluorescence Plate 1 [1] | Fluorescence Plate 2 [2] | Fluorescence Plate 3 [2] | Average Fluorescence (n = 3) [3] | Fluorescence Plate 1 [4] | Fluorescence Plate 2 [4] | Fluorescence Plate 3 [4] | Fluorescence Plate 4 [4] | Fluorescence Plate 5 [4] | Fluorescence Plate 6 [4] | Average Fluorescence (n = 6) [5] | further results |
| --- | --- | --- | --- | --- | --- | --- | --- | --- | --- | --- | --- | --- |
| CC(n1cc(C[C@H](N)C(=O)O)c2ccccc21)n1cc(C[C@H](N)C(=O)O)c2ccccc21 | 20.72 | 11.15 | 22.18 | 18.02 | – | – | – | – | – | – | – | – |
| CC(N/C(=N\C#N)Nc1ccncc1)C(C)(C)C (stereo not drawn) | 15.64 | 27.20 | 11.56 | 18.13 | – | – | – | – | – | – | – | – |
| Nc1ncnc2c1c(I)cn2[C@@H]1O[C@H](CO)C(O)C1O (stereo partly drawn) [5-IODOTUBERCIDIN] | – | – | – | – | -0.41 | 6.65 | 9.13 | 18.27 | 30.70 | 6.10 | 11.74 | – |
| O=Cc1c2c(cc3c1=Nc1ccccc1-3)=Nc1ccccc1-2 [6-FORMYLINDOLO [3,2-b] CARBAZOLE] | 30.05 | 30.08 | 32.59 | 30.90 | – | – | – | – | – | – | – | – |
| N#C/C(=C/c1ccc(O)c(O)c1)C(=O)NCc1ccccc1 [AG-490] | 7.17 | 30.27 | 13.54 | 16.99 | – | – | – | – | – | – | – | – |
| N#C/C(=C\c1ccc(O)c(O)c1)C(=O)Nc1ccccc1 [AG-494] | 19.38 | 25.36 | 25.25 | 23.33 | 5.92 | 1.23 | 1.65 | 7.58 | 3.54 | 5.26 | 4.20 | – |
| COc1cc(/C=C(\C#N)C(N)=O)cc(CSc2nc3ccccc3s2)c1O [AG-825] | 17.24 | 23.38 | 11.53 | 17.38 | – | – | – | – | – | – | – | – |
| CC(C)(C)c1cc(/C=C(\C#N)C(N)=S)cc(C(C)(C)C)c1O [AG-879] | – | – | – | – | 1.23 | 3.24 | 3.46 | 6.94 | 8.93 | 2.06 | 4.31 | – |
| C[C@@]12C(=O)OC(=O)[C@]1(C)[C@H]1CC[C@@H]2O1 [CANTHARIDIN] | – | – | – | – | 11.40 | −1.04 | 0.63 | 5.55 | 4.34 | 4.45 | 4.22 | – |
| N=C(NCc1ccc(Cl)c(Cl)c1)NC(=O)c1nc(Cl)c(N)nc1N [DICHLOROBENZAMIL] | – | – | – | – | 22.19 | 15.01 | 13.67 | 4.78 | 7.44 | 6.66 | 11.63 | – |
| CCCCC/C=C\C/C=C\C/C=C\C/C=C\CCCCCC(=O)NCCc1ccc(O)c(O)c1 [Docosatetra-7Z,10Z,13Z,16Z-enoyl dopamine] | – | – | – | – | – | – | – | – | – | – | – | Average Fluorescence (n = 6): 4.71; Fluorescence Plate 1: −1.65; Fluorescence Plate 2: 5.21; Fluorescence Plate 3: 7.47; Fluorescence Plate 4: 2.30; Fluorescence Plate 5: 9.50; Fluorescence Plate 6: 5.44 |
| NCCNS(=O)(=O)c1cccc2cnccc12 [H-9] | 18.09 | 19.17 | 13.25 | 16.84 | – | – | – | – | – | – | – | – |
| COc1ccc2c3c([nH]c2c1)C(C)=NCC3.Cl [HARMALINE HCl] | 15.00 | 42.55 | 0.22 | 19.26 | 31.97 | 27.56 | 27.06 | 22.50 | 16.09 | 19.75 | 24.15 | – |
